Measured values reported in patent US9708359B2, “Pyrrolopyrimidine nucleosides and analogs thereof” (Chimerix, Inc., priority 2015, dated 2017).

How the values were obtained:
HHV-8 = experiment: cells; format: cell-based, human herpes virus 8; settings: Homo sapiens, BCBL1; HHV-8, BCBL-1 cells
VACV = experiment: microbe, parasite or virus in culture; format: cell-based; settings: Orthopoxvirus vaccinia, HFF
ENTV-71 = experiment: microbe, parasite or virus in culture; format: cell-based; settings: Enterovirus, Vero 76; ENTV-71, Vero76 cells
POV-3 = experiment: microbe, parasite or virus in culture; format: cell-based, Poliovirus; settings: Enterovirus C, Vero 76
[1] = Parallel cytotoxicity assay in 293TT cells; format: cell-based; settings: human, parallel to JCV assay
Procedure: Every antiviral assay included a parallel cytotoxicity assay with the same cells used for each virus, the same cell number, the same drug concentrations, and the same incubation times to provide the same drug exposure. To ensure that the cytotoxicity of all compounds could be compared directly, a standard neutral red uptake cytotoxicity assay for all compounds in confluent HFF cells with a 7 d incubation period was performed.

human norovirus = experiment: Efficacy of Compound 1 Against Human Norovirus (viral titer); format: cell-based; settings: cells pretreated with 25 μM compound for two hours; duplicate (FIGS. 4-6)
Procedure: The efficacy of compound 1 for inhibiting norovirus was compared to DMSO (as a control), compound 2, and 2′-C-methylcytidine triphosphate (2′CmeC TP). Cells were pretreated with 25 μM of experimental compound for two hours. Virus inoculum was added for two hours, and unbound virus washed off and fresh media and fresh experimental compound was added.

in vitro [2] = settings: human
in vitro [3] = settings: dog
[4] = Cytotoxicity (CC50) in RAW cells; settings: mouse

## Cc1nc(N)c2c(C(N)=O)cn([C@@H]3O[C@H](CO)[C@@H](O)[C@H]3O)c2n1 [Compound 1, 4-amino-7-((2R,3R,4S,5R)-3,4-dihydroxy-5-(hydroxymethyl)tetrahydrofuran-2-yl)-2-methyl-7H-pyrrolo[2,3-d]pyrimidine-5-carboxamide]
HHV-8
  EC50: > 12 µM
VACV
  EC50: 56.2 µM
ENTV-71
  EC50: > 100 µM
POV-3
  EC50: > 100 µM
[1]
  CC50: > 60 µM
Human norovirus
  viral titer: increased less than one order of magnitude
In vitro [2]
  CC50: > 60 µM
In vitro [3]
  CC50: > 100 µM
[4]
  CC50: 114 µM
